# Assay results: article PMC5225203, “Multiparameter toxicity assessment of novel DOPO-derived organophosphorus flame retardants” (Archives of Toxicology, 2016)
# Legend:
# [1] = test system: differentiated LUHMES cells; assay type: cell-based, human; details: positive control
# Protocol: Suppl. Fig. 10. Migration of mitochondria in neurites. Mitochondrial migration was detected in fully differentiated (day 6 of differentiation, DoD6) mixed LUHMES cultures consisting of 3% eGFP/mito-tRFP-overexpressing LUHMES in 97% unlabeled LUHMES in order to allow tracking of mitochondria in single neurites in an environment of normal LUHMES cell density (Schildknecht et al. 2013, ALTEX 30(4):427-444). Single cell time lapse imaging was performed for a period of 90 s in intervals of 3 s with a Zeiss LSM 780 inverted fluorescence microscope YOKOGAWA CSU-XI spinning disk system using an EVOLVE camera (Carl Zeiss Group, Oberkochen, Germany) equipped with a 5% CO2 /37°C controlled chamber and a 40 x 1.3 NA oil objective. For image analysis, kymographs (graphical representation of spatial position over time) based on the data obtained from single cell time lapse experiments were created using ImageJ Software (NIH, Bethesda, USA). The neurite was manually defined by the segmented line tool. To calculate mitochondrial velocity, diagonal lines were drawn for each moving mitochondrium in the kymograph and analysed by calculating the slope with the macro-plugin Kymo Line ROI, generated by Felix Schöneberger, Bioimaging Center (BIC), University of Konstanz, Germany.
# (1 picture or pasted object on this page, not shown here)
# [2] = test system: 3D epidermal in vitro model generated from primary human keratinocytes; test: 3D epidermal in vitro model; assay type: cell-based; details: positive control, 5 %, 15 min
# Protocol: Human primary keratinocytes (PR3D-HPEK-50, CELLnTEC, Switzerland) were grown in flasks in proliferation medium (CNT-PR, CELLnTEC) until subconfluency was reached, after which the cells were seeded into transwell inserts containing polycarbonate membranes with a pore size of 0.4 µm at a density of 3.3 × 10^5 cells/cm^2 and grown for 3 days in CNT-PR until confluency was reached. Differentiation was initiated by the addition of 3D barrier medium (CNT-PR-3D, CELLnTEC) for 18 h to allow development of cell-to-cell adhesion structures. 3D growth and differentiation were induced by complete removal of medium from the upper transwell compartment and replacement of the CNT-PR-3D differentiation medium in the lower compartment. Cells were allowed to differentiate for 11 days with 3 medium changes per week in the lower compartment and direct cell-to-air contact in the top compartment. Flame retardants were suspended at a concentration of 200 mM in PBS containing 5 % DMSO, after which 100 µL of each test compound was applied on top of the epithelial barrier model. […] Cell viability of the epidermal models was assessed by measuring the reduction of resazurin to resorufin (PrestoBlue® Assay). Cell viability values (fluorescence signals) were normalized to the epidermal model thickness. […] Samples were mounted with DPX mounting medium (Sigma-Aldrich) and analyzed by microscopy (Olympus IX 81).
# [3] = test system: ARE-dependent luciferase expression in KeratinoSens cells; test: KeratinoSens skin sensitization assay; assay type: cell-based; details: positive control
# Protocol: Generation of the stable KeratinoSens™ cell line was previously described in detail (Emter et al. [2010]). KeratinoSens™ cells were maintained in DMEM containing glutamax (Gibco/Invitrogen), 9 % FCS, and 0.5 mg/mL G418. For the experiments, KeratinoSens™ cells were seeded onto 96-well plates at a density of 10,000 cells per well in 125 µL medium without G418. After 24 h, the medium was replaced with 200 µL DMEM containing 1 % FCS and the test compounds. After a 2-day incubation period at 37 °C in an atmosphere containing 5 % CO2, the cells were washed once with PBS and a resazurin reduction assay (PrestoBlue®) was carried out in order to compare the viability of the differently treated groups. Fluorescence intensity was measured at 550 nmex and 590 nmem. After another washing step with PBS, cell lysis was performed using 20 µL/well passive lysis buffer (Promega) for 20 min at room temperature. Luciferase activity was measured by applying 50 µL luciferase substrate automatically to each well and detecting the resulting luminescence. Compounds were considered as skin sensitizers when a statistically significant induction of luciferase activity above a defined threshold of ≥1.5 in the absence of impaired cell viability was observed (Emter et al. [2010]; Natsch et al. [2011]).
smiles,measurement,setting,value
"C[n+]1ccc(-c2ccccc2)cc1 [MPP^+, reference compound]",velocity of mitochondrial migration in neurites,[1],significant decline
"CCCCCCCCCCCCOS(=O)(=O)[O-].[Na+] [SDS, sodium dodecyl sulfate]",influence on the architecture of the epidermis,[2],complete disintegration of the stratum corneum and substantial cell death in the stratum spinosum
"CC(=O)C=Cc1ccccc1 [benzylidene acetone, reference compound]",concentration at which luciferase increase is associated with cell death,[3],> 10 µM
